Experimental data reported in patent US20180022780A1, “STABILIZATION ADRENOMEDULLIN DERIVATIVES AND USE THEREOF” (priority 2014, published 2018).
Bridge positions count the residues as written; N and C are the ends. Square brackets hold non-standard residues; d marks the D form. Peptide text beside a SMILES is read from it. * marks the point of attachment. Palmitoyl = CCCCCCCCCCCCCCCC(=O)*; NMeK = CN[C@@H](CCCCN)C(=O)O; Dap = NC[C@H](N)C(=O)O

Legend:
[1] = target: T1, human adrenomedullin-receptor (Homo sapiens, UniProt O60895+Q16602); test: Tests on a recombinant adrenomedullin-receptor reporter cell (CHO, aequorin luminescence); format: cell-based; conditions: Table 1, CHO cell line carrying the human adrenomedullin-receptor
T1 construct: expressed in transfected cells; host or cells: CHO (Chinese hamster ovary) recombinant reporter cell line with aequorin
T1 sequence (Q16602 23-461): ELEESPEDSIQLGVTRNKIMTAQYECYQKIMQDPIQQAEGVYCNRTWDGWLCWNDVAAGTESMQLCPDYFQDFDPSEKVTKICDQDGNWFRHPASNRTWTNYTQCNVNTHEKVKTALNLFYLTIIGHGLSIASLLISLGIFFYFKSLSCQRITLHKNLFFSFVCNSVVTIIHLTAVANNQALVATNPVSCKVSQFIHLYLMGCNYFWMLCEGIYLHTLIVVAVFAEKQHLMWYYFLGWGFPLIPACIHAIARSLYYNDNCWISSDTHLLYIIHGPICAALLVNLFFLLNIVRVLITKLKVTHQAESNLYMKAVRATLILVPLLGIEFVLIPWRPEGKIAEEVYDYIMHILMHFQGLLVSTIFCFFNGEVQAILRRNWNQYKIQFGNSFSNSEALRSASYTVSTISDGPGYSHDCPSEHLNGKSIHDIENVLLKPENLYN
T1 sequence (O60895 43-175): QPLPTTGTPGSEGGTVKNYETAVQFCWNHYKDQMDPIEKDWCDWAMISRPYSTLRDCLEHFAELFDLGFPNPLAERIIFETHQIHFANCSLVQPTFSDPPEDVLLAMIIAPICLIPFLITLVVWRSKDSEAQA
Method: Activation of the receptor by ligands was measured by aequorin luminescence. Construction of the cell line and measurement procedure has been described in detail [Wunder F., Rebmann A., Geerts A, and Kalthof B., Mol Pharmacol, 73, 1235-1243 (2008)]. In brief: Cells were seeded on opaque 384-well microtiter plates at a density of 4000 cells/well and were grown for 24 h. After removal of culture medium, cells were loaded for 3 h with 0.6 μg/ml coelenterazine in Ca^2+-free Tyrode solution (130 mM sodium chloride, 5 mM potassium chloride, 20 mM HEPES (4-(2-hydroxyethyl)-1-piperazineethanesulfonic acid), 1 mM magnesium chloride, and 4.8 mM sodium hydrogen carbonate, pH 7.4) supplemented with 0.2 mM 3-Isobutyl-1-methylxanthine (IBMX) in a cell culture incubator. Examples were added for 6 min in calcium^2+-free Tyrode solution containing 0.1% bovine serum albumin. Immediately before adding calcium^2+ to a final concentration of 3 mM measurement of the aequorin luminescence was started by use of a suitable luminometer. Luminescence was measured for 60 s. In a typical experiment compounds were tested in a concentration range of 1×10^−13 to 3×10^−6 M.

[2] = target: T2, CLR fused to EYFP and RAMP2 fused to ECFP (Homo sapiens, UniProt O60895+Q16602); test: cAMP assay (CRE luciferase reporter, HEK-293 cells transiently co-transfected with CLR and RAMP2); format: cell-based; conditions: Table 2, cAMP assay; HEK-293, CLR/RAMP2, CRE luciferase, 3 h stimulation, normalized to [G^14]ADM(14-52)
T2 construct: EYFP; ECFP; expressed in transfected cells; host or cells: HEK-293 cells, transient co-transfection
T2 sequence (Q16602 23-461): as the sequence (Q16602 23-461) above
T2 sequence (O60895 43-175): as the sequence (O60895 43-175) above
Procedure, shortened: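 HEK-293 cells transiently co-transfected with CLR-EYFP, RAMP2-ECFP and a CRE-luc2P luciferase reporter were stimulated with ligands (eight concentrations, triplicate) for 3 h at 37 °C. Luminescence was corrected to 5 µM forskolin, normalized to [G^14]ADM(14-52) standard, and fitted by non-linear regression to dose-response curves.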

| Structure (SMILES) | EC50 [1] [nM] | EC50 [2] [nM] |
| --- | --- | --- |
| CC[C@H](C)[C@H](NC(=O)[C@H](CCC(N)=O)NC(=O)[C@H](Cc1c[nH]cn1)NC(=O)[C@H](C)NC(=O)[C@H](CC(C)C)NC(=O)[C@H](CCCCN)NC(=O)[C@H](CCC(N)=O)NC(=O)[C@@H](NC(=O)[C@@H](NC(=O)[C@@H]1CNC(=O)C[C@H](NC(=O)CNC(=O)CN)C(=O)N[C@@H](CCCNC(=N)N)C(=O)N[C@@H](Cc2ccccc2)C(=O)NCC(=O)N[C@@H]([C@@H](C)O)C(=O)N1)[C@@H](C)O)C(C)C)C(=O)N[C@@H](Cc1ccc(O)cc1)C(=O)N[C@@H](CCC(N)=O)C(=O)N[C@@H](Cc1ccccc1)C(=O)N[C@H](C(=O)N[C@@H](CC(=O)O)C(=O)N[C@@H](CCCCN)C(=O)N[C@@H](CC(=O)O)C(=O)N[C@@H](CCCCN)C(=O)N[C@@H](CC(=O)O)C(=O)N[C@@H](CC(N)=O)C(=O)N[C@H](C(=O)N[C@@H](C)C(=O)N1CCC[C@H]1C(=O)N[C@@H](CCCNC(=N)N)C(=O)N[C@@H](CO)C(=O)N[C@@H](CCCCN)C(=O)N[C@H](C(=O)N[C@@H](CO)C(=O)N1CCC[C@H]1C(=O)N[C@@H](CCC(N)=O)C(=O)NCC(=O)N[C@@H](Cc1ccc(O)cc1)C(N)=O)[C@@H](C)CC)C(C)C)[C@@H](C)O [Example 26, ((3S,6S,12S,15S,18S)-18-(2-(2-aminoacetamido)acetamido)-12-benzyl-15-(3-guanidinopropyl)-6-((R)-1-hydroxyethyl)-5,8,11,14,17,20-hexaoxo-1,4,7,10,13,16-hexaazacycloicosane-3-carbonyl)-L-threonyl-ADM(22-52)] (H-GGDRFGT[Dap]TVQKLAHQIYQFTDKDKDNVAPRSKISPQGY-NH2; lactam 3-8) | 32 | > 1000 |
| CC[C@H](C)[C@H](NC(=O)[C@H](CCC(N)=O)NC(=O)[C@H](Cc1c[nH]cn1)NC(=O)[C@H](C)NC(=O)[C@H](CC(C)C)NC(=O)[C@H](CCCCN)NC(=O)[C@H](CCC(N)=O)NC(=O)[C@@H](NC(=O)[C@@H](NC(=O)[C@@H]1CNC(=O)CC[C@H](NC(=O)CNC(=O)CN)C(=O)N[C@@H](CCCNC(=N)N)C(=O)N[C@@H](Cc2ccccc2)C(=O)NCC(=O)N[C@@H]([C@@H](C)O)C(=O)N1)[C@@H](C)O)C(C)C)C(=O)N[C@@H](Cc1ccc(O)cc1)C(=O)N[C@@H](CCC(N)=O)C(=O)N[C@@H](Cc1ccccc1)C(=O)N[C@H](C(=O)N[C@@H](CC(=O)O)C(=O)N[C@@H](CCCCN)C(=O)N[C@@H](CC(=O)O)C(=O)N[C@@H](CCCCN)C(=O)N[C@@H](CC(=O)O)C(=O)N[C@@H](CC(N)=O)C(=O)N[C@H](C(=O)N[C@@H](C)C(=O)N1CCC[C@H]1C(=O)N[C@@H](CCCNC(=N)N)C(=O)N[C@@H](CO)C(=O)N[C@@H](CCCCN)C(=O)N[C@H](C(=O)N[C@@H](CO)C(=O)N1CCC[C@H]1C(=O)N[C@@H](CCC(N)=O)C(=O)NCC(=O)N[C@@H](Cc1ccc(O)cc1)C(N)=O)[C@@H](C)CC)C(C)C)[C@@H](C)O [Example 6, ((3S,6S,12S,15S,18S)-18-(2-(2-aminoacetamido)acetamido)-12-benzyl-15-(3-guanidinopropyl)-6-((R)-1-hydroxyethyl)-5,8,11,14,17,21-hexaoxo-1,4,7,10,13,16-hexaazacyclohenicosane-3-carbonyl)-L-threonyl-ADM(22-52)] (H-GGERFGT[Dap]TVQKLAHQIYQFTDKDKDNVAPRSKISPQGY-NH2; lactam 3-8) | > 1000 | 303 |
| CC[C@H](C)[C@H](NC(=O)[C@H](CCC(N)=O)NC(=O)[C@H](Cc1c[nH]cn1)NC(=O)[C@H](C)NC(=O)[C@H](CC(C)C)NC(=O)[C@H](CCCCN)NC(=O)[C@H](CCC(N)=O)NC(=O)[C@@H](NC(=O)[C@@H](NC(=O)[C@@H]1CC(=O)NCCCC[C@H](NC(=O)CNC(=O)CN)C(=O)N[C@@H](CCCNC(=N)N)C(=O)N[C@@H](Cc2ccccc2)C(=O)NCC(=O)N[C@@H]([C@@H](C)O)C(=O)N1)[C@@H](C)O)C(C)C)C(=O)N[C@@H](Cc1ccc(O)cc1)C(=O)N[C@@H](CCC(N)=O)C(=O)N[C@@H](Cc1ccccc1)C(=O)N[C@H](C(=O)N[C@@H](CC(=O)O)C(=O)N[C@@H](CCCCN)C(=O)N[C@@H](CC(=O)O)C(=O)N[C@@H](CCCCN)C(=O)N[C@@H](CC(=O)O)C(=O)N[C@@H](CC(N)=O)C(=O)N[C@H](C(=O)N[C@@H](C)C(=O)N1CCC[C@H]1C(=O)N[C@@H](CCCNC(=N)N)C(=O)N[C@@H](CO)C(=O)N[C@@H](CCCCN)C(=O)N[C@H](C(=O)N[C@@H](CO)C(=O)N1CCC[C@H]1C(=O)N[C@@H](CCC(N)=O)C(=O)NCC(=O)N[C@@H](Cc1ccc(O)cc1)C(N)=O)[C@@H](C)CC)C(C)C)[C@@H](C)O [Example 21, ((2S,5S,11S,14S,22S)-22-(2-(2-aminoacetamido)acetamido)-5-benzyl-2-(3-guanidinopropyl)-11-((R)-1-hydroxyethyl)-3,6,9,12,16,23-hexaoxo-1,4,7,10,13,17-hexaazacyclotricosane-14-carbonyl)-L-threonyl-ADM(22-52)] (H-GGKRFGTDTVQKLAHQIYQFTDKDKDNVAPRSKISPQGY-NH2; lactam 3-8) | > 1000 | > 1000 |

Compounds with a lower EC50 [2], results first:

| EC50 [1] [nM] | EC50 [2] [nM] | Structure (SMILES) |
| --- | --- | --- |
| > 1000 | 156 | CCCCCCCCCCCCCCCC(=O)NCCCC[C@H](N)C(=O)NCC(=O)N[C@H]1CCCCNC(=O)CC[C@@H](C(=O)N[C@H](C(=O)N[C@H](C(=O)N[C@@H](CCC(N)=O)C(=O)N[C@@H](CCCCN)C(=O)N[C@@H](CC(C)C)C(=O)N[C@@H](C)C(=O)N[C@@H](Cc2c[nH]cn2)C(=O)N[C@@H](CCC(N)=O)C(=O)N[C@H](C(=O)N[C@@H](Cc2ccc(O)cc2)C(=O)N[C@@H](CCC(N)=O)C(=O)N[C@@H](Cc2ccccc2)C(=O)N[C@H](C(=O)N[C@@H](CC(=O)O)C(=O)N[C@@H](CCCCN)C(=O)N[C@@H](CC(=O)O)C(=O)N[C@@H](CCCCN)C(=O)N[C@@H](CC(=O)O)C(=O)N[C@@H](CC(N)=O)C(=O)N[C@H](C(=O)N[C@@H](C)C(=O)N2CCC[C@H]2C(=O)N[C@@H](CCCNC(=N)N)C(=O)N[C@@H](CO)C(=O)N[C@@H](CCCCN)C(=O)N[C@H](C(=O)N[C@@H](CO)C(=O)N2CCC[C@H]2C(=O)N[C@@H](CCC(N)=O)C(=O)NCC(=O)N[C@@H](Cc2ccc(O)cc2)C(N)=O)[C@@H](C)CC)C(C)C)[C@@H](C)O)[C@@H](C)CC)C(C)C)[C@@H](C)O)NC(=O)[C@H]([C@@H](C)O)NC(=O)CNC(=O)[C@H](Cc2ccccc2)NC(=O)[C@H](CCCNC(=N)N)NC1=O [Example 13, ((2S,5S,11S,14S,23S)-23-(2-((S)-2-amino-6-palmitamidohexanamido)acetamido)-5-benzyl-2-(3-guanidinopropyl)-11-((R)-1-hydroxyethyl)-3,6,9,12,17,24-hexaoxo-1,4,7,10,13,18-hexaazacyclotetracosane-14-carbonyl)-L-threonyl-ADM(22-52)] (H-K(Palmitoyl)GKRFGTETVQKLAHQIYQFTDKDKDNVAPRSKISPQGY-NH2; lactam 3-8) |
|  | 3.4 | CCCCCCCCCCCCCCCC(=O)NCCCC[C@H](N)C(=O)NCC(=O)N[C@H]1CNC(=O)CC[C@@H](C(=O)N[C@H](C(=O)N[C@H](C(=O)N[C@@H](CCC(N)=O)C(=O)N[C@@H](CCCCN)C(=O)N[C@@H](CC(C)C)C(=O)N[C@@H](C)C(=O)N[C@@H](Cc2c[nH]cn2)C(=O)N[C@@H](CCC(N)=O)C(=O)N[C@H](C(=O)N[C@@H](Cc2ccc(O)cc2)C(=O)N[C@@H](CCC(N)=O)C(=O)N[C@@H](Cc2ccccc2)C(=O)N[C@H](C(=O)N[C@@H](CC(=O)O)C(=O)N[C@@H](CCCCN)C(=O)N[C@@H](CC(=O)O)C(=O)N[C@@H](CCCCN)C(=O)N[C@@H](CC(=O)O)C(=O)N[C@@H](CC(N)=O)C(=O)N[C@H](C(=O)N[C@@H](C)C(=O)N2CCC[C@H]2C(=O)N[C@@H](CCCNC(=N)N)C(=O)N[C@@H](CO)C(=O)N(C)[C@@H](CCCCN)C(=O)N[C@H](C(=O)N[C@@H](CO)C(=O)N2CCC[C@H]2C(=O)N[C@@H](CCC(N)=O)C(=O)NCC(=O)N[C@@H](Cc2ccc(O)cc2)C(N)=O)[C@@H](C)CC)C(C)C)[C@@H](C)O)[C@@H](C)CC)C(C)C)[C@@H](C)O)NC(=O)[C@H]([C@@H](C)O)NC(=O)CNC(=O)[C@H](Cc2ccccc2)NC(=O)[C@H](CCCNC(=N)N)NC1=O [Example 27, ((3S,9S,12S,15S,21S)-15-(2-((S)-2-amino-6-palmitamidohexanamido)acetamido)-9-benzyl-12-(3-guanidinopropyl)-3-((R)-1-hydroxyethyl)-2,5,8,11,14,18-hexaoxo-1,4,7,10,13,17-hexaazacyclohenicosane-21-carbonyl)-L-threonyl-[N-Me-K^46]ADM(22-52)] (H-K(Palmitoyl)G[Dap]RFGTETVQKLAHQIYQFTDKDKDNVAPRS[NMeK]ISPQGY-NH2; lactam 3-8) |
